# Source: article PMC11306077, “Diterpenoids target SARS-CoV-2 RdRp from the roots of Euphorbia fischeriana Steud” (Frontiers in Plant Science, 2024)
# Biological target: T1, SARS-CoV-2 RdRp (RNA-dependent RNA polymerase, NSP12) (Severe acute respiratory syndrome coronavirus 2, UniProt P0DTD1)
# T1 construct: gene rep
# Assay: microscale thermophoresis (MST)
# Type: binding
structure (smiles),measurement,value
"C[C@H]1C(=O)CC[C@]2(C)[C@@H]1CC[C@@]13CC[C@@H]([C@@H](O)[C@H]12)[C@]1(COC(C)(C)O1)C3 [compound 1, (4R,5S,8S,9S,10R,11S,12S,16S)-ent-11α-hydroxy-16α,17-acetonide-19-noratisan-3-one]",Kd,31.1 µM
